Assays:
[1] = target: YES (Homo sapiens, UniProt P07947)
Experimental: (§1) This was completed utilizing one of two assays depending on the kinase being examined.
(§2) A solution of IMAP binding reagent (IMAP Screening Express kit; Molecular Devices) (60 μL) was added to each well and incubated for 30 minutes.
(§3) A solution of termination buffer (QuickScout Screening assist MSA; Carna Biosciences) (60 μL) was added to each well. The entire reaction mixture was then applied to a LabChip3000 system (Caliper Life Science) and the product and substrate peptide peaks were separated and quantified.

[2] = target: PKCι (Homo sapiens, UniProt P41743)
Text: as §1
(§4) The assay utilized was identical to that of the single point inhibitory activity determination (MSA) but run in dose response.

[3] = target: RAF1_Cascade (Homo sapiens, UniProt P04049)
Experimental: as §1, §2, §3

[4] = target: CaMK1δ (Homo sapiens, UniProt Q8IU85)
Experimental: as §1, §2, §3
(§5) The assay utilized was identical to that of the single point inhibitory activity determination (MSA) but run in dose response. […] A solution of termination buffer (QuickScout Screening assist MSA; Carna Biosciences) (60 μL) was added to each well. The entire reaction mixture was then applied to a LabChip3000 system (Caliper Life Science) and the product and substrate peptide peaks were separated and quantified.

[5] = target: RON (Homo sapiens, UniProt Q04912)
Experimental: as §1, §2, §3, §5

[6] = target: PDGFRα (Homo sapiens, UniProt P16234)
Experimental: as §1, §2, §3, §5

[7] = target: SPHK2 (Homo sapiens, UniProt Q9NRA0)
Experimental: as §1, §2, §3, §5

[8] = target: PAK6 (Homo sapiens, UniProt Q9NQU5)
Experimental: as §1, §2, §3, §5

[9] = target: FRK (Homo sapiens, UniProt P42685)
Experimental: as §1, §2, §3, §5

[10] = target: CaMK2δ (Homo sapiens, UniProt Q13557)
Experimental: as §1, §2, §3, §5

[11] = tested on: MAP3K2_Cascade
Experimental: as §1, §2, §3, §5

[12] = target: CK1α (Homo sapiens, UniProt P48729)
Sequence of CK1α (P48729 whole entry): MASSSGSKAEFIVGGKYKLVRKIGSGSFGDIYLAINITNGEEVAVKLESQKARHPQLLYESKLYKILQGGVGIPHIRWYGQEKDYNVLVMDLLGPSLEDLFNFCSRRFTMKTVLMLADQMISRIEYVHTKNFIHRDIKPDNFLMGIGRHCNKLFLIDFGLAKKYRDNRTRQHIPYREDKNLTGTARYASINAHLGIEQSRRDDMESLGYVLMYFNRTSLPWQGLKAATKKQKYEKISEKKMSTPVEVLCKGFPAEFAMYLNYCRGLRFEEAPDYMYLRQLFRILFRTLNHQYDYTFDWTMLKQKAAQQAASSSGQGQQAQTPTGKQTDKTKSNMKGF
Experimental: as §1, §3, §4

[13] = target: ALK(F1174L) (Homo sapiens, UniProt Q9UM73, F1174L)
Experimental: as §1, §2, §3

[14] = target: WNK1 (Homo sapiens, UniProt Q9H4A3)
Text: as §1, §4

[15] = target: EGFR (Homo sapiens, UniProt P00533)
Experimental: as §1, §2, §3, §5

[16] = target: AMPKα2/β1/γ1 (Homo sapiens, UniProt P54646)
Experimental: as §1, §3, §4

[17] = target: HIPK3 (Homo sapiens, UniProt Q9H422)
Experimental: as §1, §2, §3, §5

[18] = target: MST2 (Homo sapiens, UniProt Q13188)
Sequence of MST2 (Q13188 whole entry): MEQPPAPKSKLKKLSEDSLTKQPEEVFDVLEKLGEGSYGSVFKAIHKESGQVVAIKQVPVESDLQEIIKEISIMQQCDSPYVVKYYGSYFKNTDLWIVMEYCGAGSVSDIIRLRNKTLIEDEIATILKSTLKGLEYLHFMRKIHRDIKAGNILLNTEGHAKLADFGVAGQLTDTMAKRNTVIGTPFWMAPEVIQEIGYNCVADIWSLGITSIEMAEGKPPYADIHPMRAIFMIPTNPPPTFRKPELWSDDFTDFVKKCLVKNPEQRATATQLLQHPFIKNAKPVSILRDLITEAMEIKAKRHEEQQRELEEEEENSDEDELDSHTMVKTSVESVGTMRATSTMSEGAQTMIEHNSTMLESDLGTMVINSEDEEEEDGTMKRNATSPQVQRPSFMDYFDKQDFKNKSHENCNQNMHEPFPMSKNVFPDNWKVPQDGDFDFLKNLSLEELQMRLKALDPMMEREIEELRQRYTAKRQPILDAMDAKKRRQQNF
Experimental: as §1, §2, §3

[19] = target: COT_Cascade (Homo sapiens, UniProt P41279)
Sequence of COT_Cascade (P41279 whole entry): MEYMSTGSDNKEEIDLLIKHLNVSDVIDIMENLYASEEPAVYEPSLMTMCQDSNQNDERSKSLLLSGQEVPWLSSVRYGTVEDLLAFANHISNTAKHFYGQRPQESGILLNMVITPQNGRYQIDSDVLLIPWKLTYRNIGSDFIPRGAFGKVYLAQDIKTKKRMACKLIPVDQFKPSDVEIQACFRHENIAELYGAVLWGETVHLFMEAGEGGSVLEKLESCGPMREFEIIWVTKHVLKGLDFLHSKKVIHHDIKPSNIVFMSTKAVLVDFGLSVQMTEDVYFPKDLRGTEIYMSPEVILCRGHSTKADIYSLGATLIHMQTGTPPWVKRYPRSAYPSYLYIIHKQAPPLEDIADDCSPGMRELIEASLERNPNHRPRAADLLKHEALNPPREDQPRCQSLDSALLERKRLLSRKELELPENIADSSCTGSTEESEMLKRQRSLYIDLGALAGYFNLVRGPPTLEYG
Experimental: as §1, §2, §3, §5

[20] = target: MRCKα (Homo sapiens, UniProt Q5VT25)
Experimental: as §1, §2, §3, §5

[21] = target: FGFR4 (Homo sapiens, UniProt P22455)
Experimental: as §1, §2, §3

[22] = target: SGK3 (Homo sapiens, UniProt Q96BR1)
Sequence of SGK3 (Q96BR1 whole entry): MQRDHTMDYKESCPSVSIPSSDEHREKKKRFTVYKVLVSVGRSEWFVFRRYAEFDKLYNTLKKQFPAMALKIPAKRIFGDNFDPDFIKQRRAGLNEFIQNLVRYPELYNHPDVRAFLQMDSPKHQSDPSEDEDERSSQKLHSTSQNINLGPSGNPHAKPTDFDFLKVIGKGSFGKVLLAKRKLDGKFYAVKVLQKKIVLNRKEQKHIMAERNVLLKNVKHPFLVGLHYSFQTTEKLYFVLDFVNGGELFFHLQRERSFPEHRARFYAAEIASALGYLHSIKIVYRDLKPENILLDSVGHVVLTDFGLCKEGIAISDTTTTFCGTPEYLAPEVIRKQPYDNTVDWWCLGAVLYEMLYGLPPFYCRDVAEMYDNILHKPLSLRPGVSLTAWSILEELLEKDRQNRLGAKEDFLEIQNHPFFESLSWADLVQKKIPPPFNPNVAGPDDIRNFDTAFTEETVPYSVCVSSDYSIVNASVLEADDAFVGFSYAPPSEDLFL
Experimental: as §1, §2, §3, §5

[23] = target: MAP2K6_Cascade (Homo sapiens, UniProt P52564)
Experimental: as §1, §2, §3, §5

[24] = target: BRK (Homo sapiens, UniProt Q13882)
[25] = target: EPHB2 (Homo sapiens, UniProt P29323)
Experimental: as §1, §2, §3, §5

[26] = target: AurA (Homo sapiens, UniProt O14965)
Experimental: as §1, §3, §4

[27] = target: EPHA8 (Homo sapiens, UniProt P29322)
Experimental: as §1, §2, §3, §5

[28] = target: T1, PLK1 (Homo sapiens, UniProt P53350); assay: Carna kinase panel; type: biochemical
T1 construct: purchased Carna Biosciences
T1 sequence (P53350 whole entry): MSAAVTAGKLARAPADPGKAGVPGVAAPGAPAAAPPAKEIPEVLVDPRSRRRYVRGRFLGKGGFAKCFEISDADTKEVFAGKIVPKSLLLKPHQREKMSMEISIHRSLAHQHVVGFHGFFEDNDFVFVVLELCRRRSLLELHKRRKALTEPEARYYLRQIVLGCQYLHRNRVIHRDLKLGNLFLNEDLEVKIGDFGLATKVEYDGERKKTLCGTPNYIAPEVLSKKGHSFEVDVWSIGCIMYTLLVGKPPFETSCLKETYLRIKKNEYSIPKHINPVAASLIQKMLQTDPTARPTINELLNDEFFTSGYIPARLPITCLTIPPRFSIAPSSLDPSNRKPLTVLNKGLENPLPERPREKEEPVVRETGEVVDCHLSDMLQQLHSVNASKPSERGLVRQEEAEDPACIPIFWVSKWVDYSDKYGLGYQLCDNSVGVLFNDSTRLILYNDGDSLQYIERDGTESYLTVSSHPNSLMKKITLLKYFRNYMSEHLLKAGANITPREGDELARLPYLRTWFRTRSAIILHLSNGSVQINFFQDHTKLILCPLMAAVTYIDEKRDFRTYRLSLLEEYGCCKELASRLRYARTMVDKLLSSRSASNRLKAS
Experimental: as §1, §2, §3

[29] = target: NuaK1 (Homo sapiens, UniProt O60285)
Experimental: as §1, §2, §3, §5

[30] = target: FGFR4(V550E) (Homo sapiens, UniProt P22455, V550E)
Experimental: as §1, §2, §3, §5

[31] = target: SYK (Homo sapiens, UniProt P43405)
Experimental: as §1, §2, §3, §5

[32] = target: T2, HIPK4 (Homo sapiens, UniProt Q8NE63); assay: Carna kinase panel; type: biochemical
T2 construct: purchased Carna Biosciences
Experimental: as §1, §2, §3

[33] = target: SIK (Homo sapiens, UniProt P57059)
Experimental: as §1, §2, §3, §5

[34] = target: PYK2 (Homo sapiens, UniProt Q14289)
Experimental: as §1, §2, §3

[35] = target: SRM (Homo sapiens, UniProt Q9H3Y6)
Sequence of SRM (Q9H3Y6 whole entry): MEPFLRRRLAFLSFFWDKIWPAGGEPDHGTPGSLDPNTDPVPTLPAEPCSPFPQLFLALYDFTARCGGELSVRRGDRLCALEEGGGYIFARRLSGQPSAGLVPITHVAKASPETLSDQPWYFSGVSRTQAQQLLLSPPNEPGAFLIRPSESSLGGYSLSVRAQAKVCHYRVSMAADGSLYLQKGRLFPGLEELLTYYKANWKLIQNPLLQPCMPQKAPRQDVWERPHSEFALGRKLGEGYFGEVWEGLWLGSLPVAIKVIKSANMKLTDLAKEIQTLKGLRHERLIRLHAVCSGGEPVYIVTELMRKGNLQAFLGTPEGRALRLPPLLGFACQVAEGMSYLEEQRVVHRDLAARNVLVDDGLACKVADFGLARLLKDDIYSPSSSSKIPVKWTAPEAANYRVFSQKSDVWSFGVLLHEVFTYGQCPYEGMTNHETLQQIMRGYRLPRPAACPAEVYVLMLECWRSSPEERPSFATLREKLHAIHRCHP
Experimental: as §1, §2, §3, §5

[36] = target: FGFR3(K650E) (Homo sapiens, UniProt P22607, K650E)
Sequence of FGFR3(K650E) (P22607 23-806 K650E): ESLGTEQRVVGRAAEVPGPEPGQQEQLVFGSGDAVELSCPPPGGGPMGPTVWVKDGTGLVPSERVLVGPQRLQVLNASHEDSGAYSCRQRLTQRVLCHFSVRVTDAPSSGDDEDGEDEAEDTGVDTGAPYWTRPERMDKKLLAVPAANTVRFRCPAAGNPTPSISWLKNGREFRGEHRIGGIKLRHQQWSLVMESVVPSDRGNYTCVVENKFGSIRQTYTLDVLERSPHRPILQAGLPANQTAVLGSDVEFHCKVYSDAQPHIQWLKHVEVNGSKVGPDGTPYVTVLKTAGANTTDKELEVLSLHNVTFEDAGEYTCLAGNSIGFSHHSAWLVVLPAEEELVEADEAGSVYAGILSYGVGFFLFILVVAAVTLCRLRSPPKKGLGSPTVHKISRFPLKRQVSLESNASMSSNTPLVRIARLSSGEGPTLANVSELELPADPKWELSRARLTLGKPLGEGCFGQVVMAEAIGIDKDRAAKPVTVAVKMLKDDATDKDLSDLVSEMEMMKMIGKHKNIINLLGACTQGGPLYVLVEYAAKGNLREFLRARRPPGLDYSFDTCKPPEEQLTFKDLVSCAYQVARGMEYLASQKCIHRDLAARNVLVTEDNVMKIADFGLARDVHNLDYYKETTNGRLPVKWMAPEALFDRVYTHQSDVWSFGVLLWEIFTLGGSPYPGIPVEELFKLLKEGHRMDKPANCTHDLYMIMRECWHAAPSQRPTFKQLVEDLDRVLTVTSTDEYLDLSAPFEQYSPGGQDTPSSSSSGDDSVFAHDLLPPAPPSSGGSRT
Experimental: as §1, §2, §3, §5

[37] = target: BLK (Homo sapiens, UniProt P51451)
Sequence of BLK (P51451 whole entry): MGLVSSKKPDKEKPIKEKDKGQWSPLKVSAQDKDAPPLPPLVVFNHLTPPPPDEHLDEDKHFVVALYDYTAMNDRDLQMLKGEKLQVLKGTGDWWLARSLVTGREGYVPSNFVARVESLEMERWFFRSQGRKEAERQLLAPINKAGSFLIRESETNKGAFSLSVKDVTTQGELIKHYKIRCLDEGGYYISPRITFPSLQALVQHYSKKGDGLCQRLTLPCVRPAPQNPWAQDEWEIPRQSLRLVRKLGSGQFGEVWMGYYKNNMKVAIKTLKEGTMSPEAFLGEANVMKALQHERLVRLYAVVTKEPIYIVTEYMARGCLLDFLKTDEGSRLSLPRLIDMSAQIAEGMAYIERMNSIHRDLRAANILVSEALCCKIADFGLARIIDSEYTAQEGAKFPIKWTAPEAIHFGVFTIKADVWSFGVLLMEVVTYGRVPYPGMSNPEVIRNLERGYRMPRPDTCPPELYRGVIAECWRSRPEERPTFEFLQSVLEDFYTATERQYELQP
Experimental: as §1, §2, §3, §5

[38] = target: MST4 (Homo sapiens, UniProt Q9P289)
Experimental: as §1, §2, §3, §5

[39] = target: TXK (Homo sapiens, UniProt P42681)
Experimental: as §1, §2, §3, §5

[40] = target: IKKβ (Homo sapiens, UniProt O14920)
Experimental: as §1, §2, §3, §5

[41] = target: SRPK1 (Homo sapiens, UniProt Q96SB4)
Experimental: as §1, §2, §3, §5

Sequence of PKCι (P41743 whole entry): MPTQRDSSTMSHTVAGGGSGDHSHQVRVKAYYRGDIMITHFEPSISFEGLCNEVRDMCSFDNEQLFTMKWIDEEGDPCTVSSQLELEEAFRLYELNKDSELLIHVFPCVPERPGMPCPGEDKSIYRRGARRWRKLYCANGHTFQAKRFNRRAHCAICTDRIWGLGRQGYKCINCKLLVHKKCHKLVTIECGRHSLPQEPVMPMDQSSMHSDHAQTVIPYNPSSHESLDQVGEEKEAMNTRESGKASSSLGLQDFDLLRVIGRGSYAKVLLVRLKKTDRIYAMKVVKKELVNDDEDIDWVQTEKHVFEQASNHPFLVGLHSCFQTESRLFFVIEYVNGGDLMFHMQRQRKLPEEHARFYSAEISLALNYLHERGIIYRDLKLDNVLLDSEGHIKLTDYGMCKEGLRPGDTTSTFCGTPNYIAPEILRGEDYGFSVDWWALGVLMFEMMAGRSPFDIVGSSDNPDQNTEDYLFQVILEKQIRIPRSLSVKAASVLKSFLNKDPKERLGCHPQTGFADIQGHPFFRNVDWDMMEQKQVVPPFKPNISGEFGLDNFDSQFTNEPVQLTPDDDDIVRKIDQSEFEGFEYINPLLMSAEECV

## CC(C)(C)Cc1[nH]nc2c1[C@](C)(c1ccccc1)C1=C(CC(C)(C)CC1=O)N2 [BRD3731]
[1]; 10 μM
  % Inhibition 10 μM: 1.6%
[2]; 10 μM
  % Inhibition 10 μM: 2.5%
[3]; 10 μM
  % Inhibition 10 μM: −6.6%
[4]; 10 μM
  % Inhibition 10 μM: 16.7%
[5]; 10 μM
  % Inhibition 10 μM: 2.3%
[6]; 10 μM
  % Inhibition 10 μM: 6.7%
[7]; 10 μM
  % Inhibition 10 μM: 15.2%
[8]; 10 μM
  % Inhibition 10 μM: −46.8%
[9]; 10 μM
  % Inhibition 10 μM: 3.2%
[10]; 10 μM
  % Inhibition 10 μM: −0.3%
[11]; 10 μM
  % Inhibition 10 μM: −0.7%
[12]; 10 μM
  % Inhibition 10 μM: −5.6%
[13]; 10 μM
  % Inhibition 10 μM: 0.2%
[14]; 10 μM
  % Inhibition 10 μM: −1.0%
[15]; 10 μM
  % Inhibition 10 μM: 10.0%
[16]; 10 μM
  % Inhibition 10 μM: 16.7%
[17]; 10 μM
  % Inhibition 10 μM: 3.2%
[18]; 10 μM
  % Inhibition 10 μM: 1.5%
[19]; 10 μM
  % Inhibition 10 μM: 10.5%
[20]; 10 μM
  % Inhibition 10 μM: 4.3%
[21]; 10 μM
  % Inhibition 10 μM: −8.1%
[22]; 10 μM
  % Inhibition 10 μM: −5.2%
[23]; 10 μM
  % Inhibition 10 μM: 3.3%
[24]; 10 μM
  % Inhibition 10 μM: −5.6%
[25]; 10 μM
  % Inhibition 10 μM: 6.4%
[26]; 10 μM
  % Inhibition 10 μM: 15.4%
[27]; 10 μM
  % Inhibition 10 μM: −1.9%
[28]; 10 μM
  % Inhibition 10 μM: −0.7%
[29]; 10 μM
  % Inhibition 10 μM: −0.9%
[30]; 10 μM
  % Inhibition 10 μM: 0.1%
[31]; 10 μM
  % Inhibition 10 μM: −11.0%
[32]; 10 μM
  % Inhibition 10 μM: 15.9%
[33]; 10 μM
  % Inhibition 10 μM: 8.2%
[34]; 10 μM
  % Inhibition 10 μM: 5.3%
[35]; 10 μM
  % Inhibition 10 μM: 0.9%
[36]; 10 μM
  % Inhibition 10 μM: 0.7%
[37]; 10 μM
  % Inhibition 10 μM: 4.9%
[38]; 10 μM
  % Inhibition 10 μM: 6.4%
[39]; 10 μM
  % Inhibition 10 μM: 1.3%
[40]; 10 μM
  % Inhibition 10 μM: 0.2%
[41]; 10 μM
  % Inhibition 10 μM: 5.0%

## CC[C@@]1(c2ccccc2)C2=C(CC(C)(C)CC2=O)Nc2n[nH]cc21 [BRD0705]
[1]
  % Inhibition at 10 μM: 7.9%
[2]
  % Inhibition at 10 μM: −4.3%
[3]
  % Inhibition at 10 μM: 7.5%
[4]
  % Inhibition at 10 μM: −3.0%
[5]
  % Inhibition at 10 μM: −3.8%
[6]
  % Inhibition at 10 μM: −0.8%
[7]
  % Inhibition at 10 μM: −3.8%
[8]
  % Inhibition at 10 μM: −10.7%
[9]
  % Inhibition at 10 μM: 0.9%
[10]
  % Inhibition at 10 μM: −4.4%
[11]
  % Inhibition at 10 μM: 1.0%
[12]
  % Inhibition at 10 μM: 6.0%
[13]
  % Inhibition at 10 μM: 1.7%
[14]
  % Inhibition at 10 μM: −4.2%
[15]
  % Inhibition at 10 μM: 0.3%
[16]
  % Inhibition at 10 μM: 5.1%
[17]
  % Inhibition at 10 μM: −7.6%
[18]
  % Inhibition at 10 μM: −3.4%
[19]
  % Inhibition at 10 μM: 11.2%
[20]
  % Inhibition at 10 μM: −3.8%
[21]
  % Inhibition at 10 μM: −13.4%
[22]
  % Inhibition at 10 μM: −1.8%
[23]
  % Inhibition at 10 μM: 4.2%
[24]
  % Inhibition at 10 μM: −1.4%
[25]
  % Inhibition at 10 μM: 6.5%
[26]
  % Inhibition at 10 μM: 6.1%
[27]
  % Inhibition at 10 μM: 2.9%
[28]
  % Inhibition at 10 μM: −12.3%
[29]
  % Inhibition at 10 μM: −2.0%
[30]
  % Inhibition at 10 μM: −0.5%
[31]
  % Inhibition at 10 μM: 0.6%
[32]
  % Inhibition at 10 μM: 2.1%
[33]
  % Inhibition at 10 μM: −4.8%
[34]
  % Inhibition at 10 μM: 3.5%
[35]
  % Inhibition at 10 μM: −5.5%
[36]
  % Inhibition at 10 μM: −15.5%
[37]
  % Inhibition at 10 μM: −3.4%
[38]
  % Inhibition at 10 μM: −0.4%
[39]
  % Inhibition at 10 μM: −1.7%
[40]
  % Inhibition at 10 μM: −4.0%
[41]
  % Inhibition at 10 μM: −2.0%

— patent US20160375006A1, “USES OF PARALOG-SELECTIVE INHIBITORS OF GSK3 KINASES” (priority 2012, published 2016)
